This note sets out measurements from publication PMC11783601, “Analogue-Sensitive Inhibition of Histone Demethylases Uncovers Member-Specific Function in Ribosomal Protein Synthesis” (Journal of the American Chemical Society, 2025).

Structures are written as SMILES. “Also recorded” adds a separate entry of the source.

The test system of one series is HEK293T cells. The series can be described thus: MTT assay. Conditions: near millimolar concentrations (100 to 800 µM, 24 hours). It is filed as cell-based, human. The text has this:
We next examined the orthogonal pairs for their ability to modulate lysine demethylation on the chromosomal histone in cultured human cells (Figure 4A). To this end, we generated the F185A mutation in full-length KDM4A carrying all of the functional domains. Furthermore, to enhance cell permeability, we synthesized two chemoselective ester prodrugs 6A and 6B carrying either an n-octyl or a trifluoromethyl benzyl ester as the lipophilic moiety, respectively (Figures 4A, S5, and S6, Scheme S3).[46],[47] We confirmed the cell permeability of 6A and 6B and their subsequent hydrolysis to 6 by analyzing extracts of compound-treated HEK293T cells using LC-HRMS. […]
12. Examining cell permeability and toxicity of 6A and 6B
In a T-25 cell culture flask, HEK293T cells were treated with either 200 µM L-Leu octyl-ester NOG 6A, L-Leu TFMB-ester NOG 6B, or corresponding volume of DMSO. Following 24 hours of incubation at 37 °C, media was removed and 3mL of 80:20 methanol: water was added while the flasks with cells were on dry ice. The flasks were then incubated in -80 °C for 10 minutes to allow cell lysis. […]
To assess the toxicity of 6A/B on HEK 293-T cells (ATCC CRL-1573) were counted, and 5,000 cells were plated into a 96 well cell culture plate (Corning) for n=5 of each treatment. […] Absorbance at 570nm was quantified via TECAN Infinite […]
(Tetrazolium dyes change colour on reduction, which living cells bring about.)

Series [1] deals with nascent protein synthesis in HEK293T cells. The series can be described thus: BONCAT: azidohomoalanine incorporation, TAMRA alkyne click, in-gel fluorescence. Format: cell-based, human. The text has this: Biochemical integrity and robust orthogonality of asKDM4-NOL pairs in cells strongly argue for their applicability in elucidating the regulatory functions of KDM4 members in cellular processes. […] To investigate the role of KDM4A in protein synthesis, we adapted the bioorthogonal noncanonical amino acid tagging (BONCAT) tactic which relies on the translational incorporation of an unnatural amino acid probe into newly synthesized proteins in cells (Figure 5A).[28] HEK293T cells expressing wild type KDM4A or its F185A mutant were treated with n-octyl IOX1 or 6A, and the synthesis of nascent proteins was tracked by pulsing the cells with azidohomoalanine (AHA). Isolated cellular extracts were subjected to copper-catalyzed click ligation with TAMRA alkyne,[50] separated on polyacrylamide gel and visualized at 532 nm light (lmax for TAMRA) to assess AHA incorporation. Overexpression of wild type KDM4A and the as variant (F185A) increased the amount of newly synthesized proteins compared to control vector-transfected cells (Figure 5B). […]
Millipore Ltd.) membrane was cut to size, activated with MeOH for 30 seconds and incubated in 10X SSC buffer for 5 minutes while shaking. The membrane was then placed on a 96-well Bio-Dot microfiltration apparatus (Bio-Rad), washed with 100µL of 10X SSC buffer and the RNA solution was applied, and vacuum filtered. Sample was then rinsed with 100µL of 10X SSC buffer.
The membrane was dried at 37 °C followed by crosslinking for 5 minutes with UV light at 254nm.
Membrane was then subject to the protocol mentioned in the section General Protocol for Western […]
16. Incorporation of Azidohomoalanine in HEK293T cells
HEK293T cells were passaged into a 6 well plate. The cells were grown overnight then transfected with 3 ug of indicated plasmid, KDM4A WT/F185A or KDM4D WT/F189A expression vector, […]
and 6 ug of Thermo Turbofect (FERR0531). KDM4A siRNA was transfected into cells using 10nM siRNA (Thermo 4392420) with 1:2 ug amount of Thermo Turbofect (FERR0531). Cells were washed 4 hours later and fresh DMEM was applied. The next day, the cells were treated with inhibitor (L-leucine NOG) and grown for 24 hours. […] The lysate was quantified with Bradford dye and 40 ug of lysate was incubated with 1 mM Tris[(1-benzyl-1H-1,2,3-triazol-4-yl)methyl]amine (TBTA […]
For analysis of AHA incorporation measured by fixed cell imaging, HEK293-T cells (ATCC CRL-1573) were grown in a 24 well plate (Corning) on poly-D-lysine (Gibco A3890401) treated glass coverslips (ThermoScientific 12-545-81P) overnight and transfected the next day with 500 ng KDM4A WT/F185A or Empty Vector (EV) equivalent using 1:2 ug of Thermo Turbofect (FERR0531). […]

As to `CCCCCCCCOC(=O)C(=O)NC(CC(C)C)C(=O)O` [6A, L-Leu octyl-ester NOG], the cytotoxicity result with HEK293T cells is reported as “marginal cytotoxicity”. Besides, the “nascent protein synthesis (TAMRA in-gel fluorescence)” value in series [1] (HEK293T cells expressing F185A, 6A) was “sharp decline in protein synthesis; also recorded: subsequently inhibited”; in series [1] (HEK293T cells, endogenous wild type KDM4A, 200 μM 6A) it was “no effect on protein synthesis; also recorded: failed to inhibit protein synthesis”.

Regarding `CC(C)CC(NC(=O)C(=O)OCc1cccc(C(F)(F)F)c1)C(=O)O` [6B, L-Leu TFMB-ester NOG], the cytotoxicity result with HEK293T cells was “marginal cytotoxicity”.

With `CCCCCCCCOC(=O)c1ccc(O)c2ncccc12` [n-octyl IOX1], the “nascent protein synthesis (TAMRA in-gel fluorescence)” value in series [1] (HEK293T cells expressing wild type KDM4A, n-octyl IOX1) is reported as “sharp decline in protein synthesis; also recorded: subsequently inhibited”; in series [1] (HEK293T cells, endogenous KDM4A, 10 μM n-octyl IOX1), “protein synthesis inhibition”.
